Biological target: T1, wild-type HIV-1 protease (Human immunodeficiency virus type 1 group M subtype B, UniProt P04585)
T1 construct: Escherichia coli expressed wild-type HIV-1 protease protein; made in house; host or cells: Escherichia coli
Test: Assay for Inhibition of Microbial Expressed HIV Protease
Assay type: biochemical
Settings: Escherichia coli expressed wild-type HIV-1 protease, peptide substrate cleavage; mean of at least two independent experiments
Outline: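 E. coli-expressed wild-type HIV-1 protease (20 pM) was preincubated with inhibitor for 30 min at room temperature in 50 mM sodium acetate pH 5.5, 100 mM NaCl, 0.1% BSA. It was then reacted with 400 μM peptide substrate for 1 h at 30 °C. Cleavage product was quantified by LC-MS/MS, and IC50 is the mean of at least two experiments.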

SMILES	IC50 [nM]
CC(C)CC1(c2ccccc2)NC(=N)N(Cc2cc(C(=O)N(C)Cc3ccc(C#N)cc3)ccn2)C1=O (stereo not drawn) [Example 87, N-(4-cyanobenzyl)-2-{[2-imino-4-(2-methylpropyl)-5-oxo-4-phenylimidazolidin-1-yl]methyl}-N-methylpyridine-4-carboxamide]	15.5
CC(C)CCC1(c2ccccc2)NC(=N)N(Cc2cc(C(=O)N(C)Cc3ccc(C#N)cc3)ccn2)C1=O (stereo not drawn) [Example 88, N-(4-cyanobenzyl)-2-{[2-imino-4-(3-methylbutyl)-5-oxo-4-phenylimidazolidin-1-yl]methyl}-N-methylpyridine-4-carboxamide]	17.1
CN(Cc1ccc(Cl)cc1)C(=O)c1ccnc(CN2C(=N)NC(c3ccc(F)cc3)(c3ccc(F)cc3)C2=O)c1 [Example 89, 2-{[4,4-bis(4-fluorophenyl)-2-imino-5-oxoimidazolidin-1-yl]methyl}-N-(4-chlorobenzyl)-N-methylpyridine-4-carboxamide]	18.9
CN(Cc1ccc(F)cc1)C(=O)c1ccnc(CN2C(=N)NC(c3ccccc3)(c3ccccc3)C2=O)c1 [Example 90, N-(4-fluorobenzyl)-2-[(2-imino-5-oxo-4,4-diphenylimidazolidin-1-yl)methyl]-N-methylpyridine-4-carboxamide]	24.6
CC(C)CC1(c2ccccc2)NC(=N)N(Cc2cc(C(=O)N(C)Cc3ccc(Cl)cc3)ccn2)C1=O (stereo not drawn) [Example 91, N-(4-chlorobenzyl)-2-{[2-imino-4-(2-methylpropyl)-5-oxo-4-phenylimidazolidin-1-yl]methyl}-N-methylpyridine-4-carboxamide]	34.1
CN(Cc1ccccc1S(C)(=O)=O)C(=O)c1ccnc(CN2C(=N)NC(c3ccccc3)(c3ccccc3)C2=O)c1 [Example 92, 2-[(2-imino-5-oxo-4,4-diphenylimidazolidin-1-yl)methyl]-N-methyl-N-[2-(methylsulfonyl)benzyl]pyridine-4-carboxamide]	53
Cc1cc(CN2C(=N)NC(c3ccc(F)cc3)(c3ccc(F)cc3)C2=O)cc(C(=O)N(C)Cc2ccc(F)cc2)n1 [Example 93, 4-{[4,4-bis(4-fluorophenyl)-2-imino-5-oxoimidazolidin-1-yl]methyl}-N-(4-fluorobenzyl)-N,6-dimethylpyridine-2-carboxamide]	32.6
CN(Cc1ccc(F)cc1)C(=O)c1csc(CN2C(=N)NC(c3ccccc3)(c3ccccc3)C2=O)c1 [Example 94, N-(4-fluorobenzyl)-5-[(2-imino-5-oxo-4,4-diphenylimidazolidin-1-yl)methyl]-N-methylthiophene-3-carboxamide]	8.9
CN(Cc1ccc(F)cc1)C(=O)c1csc(CN2C(=N)NC(c3ccccc3)(c3ccccc3)C2=O)n1 [Example 95, N-(4-fluorobenzyl)-2-[(2-imino-5-oxo-4,4-diphenylimidazolidin-1-yl)methyl]-N-methyl-1,3-thiazole-4-carboxamide]	30
